The values below come from patent US20260132165A1, “MODIFIED NUCLEOSIDE ANALOGUE AND USE THEREOF, AND NUCLEOSIDE ANALOGUE-CONTAINING DOUBLE-STRANDED OLIGONUCLEOTIDE AND USE THEREOF” (RIGERNA THERAPEUTICS (BEIJING) CO., LTD., priority 2023, published 2026).

Data set [1] concerns target gene SOD1. Description: Test Example 9: inhibitory activity of lipid conjugated siRNA sequences on SOD1 in mouse muscle tissues. Type of data set: in vivo, C57BL/6j mice. The settings on record: D14; for Diaphragm % Mean value of inhibition rate / Heart % Mean value of inhibition rate / Left quadriceps muscle % Mean value of inhibition rate: tail vein injection 5 mg/kg; for Left quadriceps muscle % Mean value of inhibition rate: left hind leg quadriceps muscle. The protocol:
(§1) RNA extraction: the above tissue samples were taken out from the RNAlater, and smashed for 60 s in Tissuelyser type II full-automatic tissue homogenizer, and total RNAs of various tissue samples were extracted using the full-automatic nucleic acid extraction instrument and the nucleic acid extraction kit from Zhejiang Hanwei Science and Technology Co. Ltd. according to methods described in instructions.
(§2) Reverse transcription reaction: 1 μg of the extracted total RNAs of the tissue samples were taken, and configured into 20 μL of reverse transcription system according to a method described in kit instructions by using a reverse transcription kit (Reverse Transcription System, A3500) from Promega Corporation and selecting Oligo (dT)15 reverse transcription primers, and the reverse transcription reaction was completed. After the reaction was ended, 80 μL of RNase-Free water was added into the reverse transcription system to provide cDNA solution for Real-time PCR detection.
(§3) Real-time PCR detection: 20 μL of Real-time PCR reaction system per PCR detection well was configured according to a method described in kit instructions using SYBR™ Select Master Mix (Catalog number: 4472908) reagent from ABI company. Each detection system contained 5 μL of cDNA template obtained from the above reverse transcription reaction, 10 μL of SYBR™ Select Master Mix, 0.5 μL of 10 μM upstream primers, 0.5 μL of 10 μM downstream primers, and 4 μL of RNase-Free H2O. The configured reaction system was subjected to Real-time PCR amplification on ABI StepOnePlus PCR instrument by a three-step method, wherein an amplification procedure was pre-denaturation at 95° C. for 10 min, then denaturation at 95° C. for 30 s, annealing at 60° C. for 30 s, and extension at 72° C. for 30 s; and processes of denaturation, annealing, and extension were repeated for 40 cycles. Gene expression differences were calculated by the ΔΔCt method after completion of the procedure.
(§4) In the real-time fluorescence quantitative PCR method, relative quantitative calculation of remaining expression level and inhibition rate of gene mRNA of interest in various test groups was performed by the ΔΔCt method, and the calculation method is as follows:
The present test example evaluated, by an evaluation method for inhibitory activity on a target gene in mice, the inhibitory activity of siRNA sequence RZ899090 with the sense strand with the NM073 conjugation at Position 4, siRNA sequence RZ899091 with the sense strand with the NM074 conjugation at Position 4, siRNA sequence RZ899078 with the sense strand with the NM202 conjugation at Position 6 and siRNA reference sequence RZ899093 with the sense strand with the Uhd conjugation at Position 4, siRNA reference sequence RZ899076 with the sense strand with the NM200 conjugation at Position 4 on the target gene SOD1 of interest in muscle tissues in different parts of mice.
6-8 Week-old C57BL/6j mice were randomly grouped by body weight, 5 per group, 6 groups in total. Mice in each group were dosed with the above siRNA conjugates by tail vein injection, with an administration dose of 5 mg/kg per mouse, and an administration volume of 150 μL. PBS control group was administered with the same volume of siRNA conjugate-free PBS solution. The day of administration was recorded as D0, and 5 mice in each group were sacrificed on D14 after administration. Tissues such as left hind leg quadriceps muscle, diaphragm, and heart tissues were respectively taken and stored in the RNAlater. RNA extraction, reverse transcription, and real-time fluorescence quantitative detection were performed on various tissues according to the above method, and gene expression differences were calculated by the above ΔΔCt method.

Data set [2] relates to target gene SOD1. As to the kind of experiment: Test Example 7: inhibitory activity of lipid conjugated siRNA sequences on SOD1 in mouse adipose and muscle tissues (tail vein injection). Type of data set: in vivo, C57BL/6j mice. The settings on record: for D 14 % Mean value of inhibition rate / D 28 % Mean value of inhibition rate / D 49 % Mean value of inhibition rate / Kidney D 14 % Mean value of inhibition rate / Kidney D 28 % Mean value of inhibition rate / Kidney D 49 % Mean value of inhibition rate / Liver D 14 % Mean value of inhibition rate / Liver D 28 % Mean value of inhibition rate / Liver D 49 % Mean value of inhibition rate: tail vein injection 5 mg/kg; for D 28 % Mean value of inhibition rate / Kidney D 28 % Mean value of inhibition rate / Liver D 28 % Mean value of inhibition rate: D28; for D 49 % Mean value of inhibition rate / Kidney D 49 % Mean value of inhibition rate / Liver D 49 % Mean value of inhibition rate: D49; for Kidney D 14 % Mean value of inhibition rate / Kidney D 28 % Mean value of inhibition rate / Kidney D 49 % Mean value of inhibition rate: mouse kidney; for Liver D 14 % Mean value of inhibition rate / Liver D 28 % Mean value of inhibition rate / Liver D 49 % Mean value of inhibition rate: mouse liver. The protocol:
as §1, §2, §3, §4
The present test example evaluated, by an evaluation method for inhibitory activity on a target gene in mice, the inhibitory activity of siRNA sequence RZ899090 with the sense strand with the NM073 conjugation at Position 4, siRNA sequence RZ899091 with the sense strand with the NM074 conjugation at Position 4, siRNA sequence RZ899078 with the sense strand with the NM202 conjugation at Position 6 and siRNA reference sequence RZ899093 with the sense strand with the Uhd conjugation at Position 4, and siRNA reference sequence RZ899076 with the sense strand with the NM200 conjugation at Position 4 on the target gene SOD1 of interest in mice. The above conjugation vectors were different in that NM073 was C18 aliphatic chain, NM074 was C20 aliphatic chain, and NM0202 and NM0200 were C22 aliphatic chains.
6-8 Week-old C57BL/6j mice were randomly grouped by body weight, 15 per group, 6 groups in total. Mice in each group were dosed with the above siRNA conjugates by tail vein injection, with an administration dose of 5 mg/kg per mouse, and an administration volume of 150 μL. PBS control group was administered with the same volume of siRNA conjugate-free PBS solution. The day of administration was recorded as D0, and 5 mice in each group were sacrificed on D14, D28 and D49 after administration. Tissues such as paragonadal fat, left hind leg quadriceps muscle, heart, liver, and kidney were respectively taken and stored in the RNAlater. RNA extraction, reverse transcription, and real-time fluorescence quantitative detection were performed on various tissues according to the above method, and gene expression differences were calculated by the above ΔΔCt method.

Setting [3] is: mouse adipose tissues (paragonadal fat), D14.
[4] abbreviates: mouse adipose tissues (paragonadal fat).
Where [5] appears, read: mouse skeletal muscle tissues (left hind leg quadriceps muscle), D14.
The mark [6] stands for this setting: mouse skeletal muscle tissues (left hind leg quadriceps muscle).

With “RZ899076: siRNA reference sequence with the sense strand with the NM200 (C22) conjugation at Position 4; SEQ ID NO: 18 / 24 (sense UUUNAAUCCUCACUCUAAA; antisense UUUAGAGUGAGGAUUAAAAUG; NM200 (C22) conjugate at sense position 4; modified_base 1..2 OTHER; 2'-methoxy and 5'-thiophosphate modified nucleotides; modified_base 3 OTHER; 2'-methoxy modified nucleotide; modified_base 4 OTHER; n is the synthetic nucleotide analog NM200 as described in the disclosure.; modified_base 5..6 OTHER; 2'-methoxy modified nucleotides; modified_base 7..10 OTHER; 2'-fluoro modified nucleotides; modified_base 11..19 OTHER; 2'-methoxy modified ; modified_base 1 OTHER; 2'-methoxy and 5'-thiovinylphosphonate modified nucleotide; modified_base 2 OTHER; 2'-fluoro and 5'-thiophosphate modified …) [reference compound]”, in the data set on target gene SOD1 [1], the “Diaphragm % Mean value of inhibition rate” value is recorded as 74.58%, the “Heart % Mean value of inhibition rate” value is given as 51.69% and the “Left quadriceps muscle % Mean value of inhibition rate” value amounted to 60.97%. For the same substance, in the data set on target gene SOD1 [2] (setting [3]), the “D 14 % Mean value of inhibition rate” value was found to be 92.23%. For the same substance, in the data set with target gene SOD1 [2] (setting [4]), the “D 28 % Mean value of inhibition rate” value was determined as 86.10% and the “D 49 % Mean value of inhibition rate” value is reported as 73.36%. Further, the “D 14 % Mean value of inhibition rate” value with target gene SOD1 [2] (mouse heart tissues, D14) worked out at 70.04%. In the data set with target gene SOD1 [2] (mouse heart tissues), the “D 28 % Mean value of inhibition rate” value is on record as 70.45% and the “D 49 % Mean value of inhibition rate” value was 37.03%. In the data set on target gene SOD1 [2] (D14), the “Kidney D 14 % Mean value of inhibition rate” value is on record as 9.13% and the “Liver D 14 % Mean value of inhibition rate” value is 51.15%. Further, in the data set with target gene SOD1 [2], the “Kidney D 28 % Mean value of inhibition rate” value was found to be 9.82%, the “Kidney D 49 % Mean value of inhibition rate” value came to 7.06%, the “Liver D 28 % Mean value of inhibition rate” value is 15.46% and the “Liver D 49 % Mean value of inhibition rate” value is −13.46%. The “D 14 % Mean value of inhibition rate” value in the data set on target gene SOD1 [2] (setting [5]) stood at 82.53%. In addition, in the data set on target gene SOD1 [2] (setting [6]), the “D 28 % Mean value of inhibition rate” value stood at 81.97% and the “D 49 % Mean value of inhibition rate” value was found to be 66.88%.

Turning to “RZ899078: siRNA sequence with the sense strand with the NM202 (C22) conjugation at Position 6; SEQ ID NO: 20 / 24 (sense UUUUANUCCUCACUCUAAA; antisense UUUAGAGUGAGGAUUAAAAUG; NM202 (C22) conjugate at sense position 6; modified_base 1..2 OTHER; 2'-methoxy and 5'-thiophosphate modified nucleotides; modified_base 3..5 OTHER; 2'-methoxy modified nucleotides; modified_base 6 OTHER; n is the synthetic nucleotide analog NM202 as described in the disclosure.; modified_base 7..10 OTHER; 2'-fluoro modified nucleotides; modified_base 11..19 OTHER; modified_base 1 OTHER; 2'-methoxy and 5'-thiovinylphosphonate modified nucleotide; modified_base 2 OTHER; 2'-fluoro and 5'-thiophosphate modified nucleotide; modified_base 6 OTHER;)”, in the data set on target gene SOD1 [1], the “Diaphragm % Mean value of inhibition rate” value is 47.67%, the “Heart % Mean value of inhibition rate” value came out at 68.69% and the “Left quadriceps muscle % Mean value of inhibition rate” value is on record as 32.10%. Further, the “inhibitory activity compared with the NM200 conjugated reference sequence RZ899076” value in the data set with target gene SOD1 [1] (heart tissues, tail vein 5 mg/kg) is recorded as “superior inhibitory activity”. Further, the “inhibitory action on the left quadriceps muscle and diaphragm” value in the data set on target gene SOD1 [1] (left quadriceps muscle and diaphragm, tail vein 5 mg/kg) was “certain inhibitory action”. In the data set with target gene SOD1 [2] (liver and kidney (non-target tissues), tail vein 5 mg/kg, D28 and D49), the “inhibitory action on liver and kidney tissues” value was “no inhibitory action”. Further, the “D 14 % Mean value of inhibition rate” value with target gene SOD1 [2] (setting [3]) is 91.53%. In the data set on target gene SOD1 [2] (setting [4]), the “D 28 % Mean value of inhibition rate” value is on record as 75.82% and the “D 49 % Mean value of inhibition rate” value is 65.16%. Besides, the “inhibitory activity compared with the NM200 conjugated reference sequence RZ899076” value in the data set on target gene SOD1 [2] (mouse adipose tissues, tail vein 5 mg/kg, D14) is given as “on par”. The “inhibitory activity compared with Uhd conjugated reference sequence RZ899093 and NM200 conjugated reference sequence RZ899076” value in the data set on target gene SOD1 [2] (mouse heart tissues, tail vein 5 mg/kg, D14, D28 and D49) is “superior inhibitory activity”. Further, the “D 14 % Mean value of inhibition rate” value in the data set on target gene SOD1 [2] (mouse heart tissues, D14) was found to be 83.53%. In the data set with target gene SOD1 [2] (mouse heart tissues), the “D 28 % Mean value of inhibition rate” value was found to be 79.52% and the “D 49 % Mean value of inhibition rate” value is on record as 63.42%. In addition, in the data set with target gene SOD1 [2] (D14), the “Kidney D 14 % Mean value of inhibition rate” value was −7.92% and the “Liver D 14 % Mean value of inhibition rate” value stood at 20.63%. Also, in the data set on target gene SOD1 [2], the “Kidney D 28 % Mean value of inhibition rate” value was 1.46%, the “Kidney D 49 % Mean value of inhibition rate” value was determined as 2.03%, the “Liver D 28 % Mean value of inhibition rate” value came out at 15.46% and the “Liver D 49 % Mean value of inhibition rate” value was −11.54%. Moreover, the “D 14 % Mean value of inhibition rate” value in the data set with target gene SOD1 [2] (setting [5]) is given as 71.63%. For the same substance, the “D 28 % Mean value of inhibition rate” value with target gene SOD1 [2] (setting [6]) came out at 69.78%. The “inhibitory activity in mouse skeletal muscle tissues” value in the data set with target gene SOD1 [2] (skeletal muscle, tail vein 5 mg/kg) is on record as “highest inhibitory activity in muscles”.
